Source: patent US20160030438A1, “ANTI-TUMORAL COMPOSITION COMPRISING A PI3KBETA INHIBITOR AND A RAF INHIBITOR, TO OVERCOME CANCER CELLS RESISTANCE” (SANOFI, priority 2013, published 2016)

Assays:
Assay type in all cases: cell-based
[1] = test system: human melanoma cell line WM-266-4; assay: In vitro pro-apoptotic activity (PARP cleavage) in WM-266-4 in a concentration-dependent manner, example 5; details: single agent 100 nM, WM-266-4, example 5
Method: (§1) The characterization of the interaction between compound (I) and compound (II) was studied using western blotting method which allows investigating apoptosis by detecting the cleavage of the PARP protein.
(§2) The human melanoma WM-266-4 cell line was purchased at ATCC (Ref number CRL-1676 Batch 3272826). The WM-266-4 cells were cultured in RPMI1640 medium supplemented with 10% FBS and 2 mM L-Glutamine.
(§3) They were diluted following two 10-fold step dilution in DMSO in order to obtain a 1 mM solution and a 0.1 mM solution Then each solution at 10 mM, 1 mM or 0.1 mM was diluted 50-fold in culture medium containing 10% serum before being added onto cells with a 20-fold dilution factor to reach final concentrations of 10,000 nM, 1,000 nM and 100 nM. The final DMSO concentration was 0.1% in controls and in all treated wells.
(§4) Cell treatment, Western Blot experiment and calculation of apoptosis fold induction were performed according to the material and method described in example 2.

[2] = test system: human melanoma cell line A2058; assay: In vitro pro-apoptotic activity (PARP cleavage) in A2058 in a concentration-dependent manner, example 6; details: single agent 100 nM, A2058, example 6
Method: as §1
(§5) The human melanoma A2058 cell line was purchased at ATCC (Ref number CRL-11147 Batch 5074651). The A2058 cells were cultured in DMEM High glucose medium supplemented with 10% FBS and 2 mM L-Glutamine.
as §4

[3] = test system: human melanoma cell line WM-266-4; assay: In vitro pro-apoptotic activity (PARP cleavage western blot) in WM-266-4, example 2; details: 100 nM, positive control, WM-266-4, example 2
Method: The characterization of the interaction between compound (I) and compound (II) was studied using western blotting method measuring the expression of cleaved PARP which allows to investigate apoptosis by detecting the cleavage of the PARP protein.
as §2
as §3, with “a 10 fold” for “two 10-fold”, “solution.” for “solution and a 0.1 mM solution”, “mM and” for “mM,”, “1” for “1 mM or 0.1”, “10,000” for “10,000 nM, 1,000”, “1,000” for “100”
WM-266-4 cells were seeded into 6-well microplates at 1 000 000 cells per well, in complete culture medium and incubated at 37° C., 5% CO2, overnight.
At the end of cell treatment period, adherent cells as well as cells in the cell culture supernatant were lysed for the preparation of the proteins. Cells were lysed in a lysis buffer containing Hepes 50 mM, NaCl 150 mM, Glycerol 10%, Triton 1%, pH=7.5, adding extemporaneously a cocktail of protease and phosphatase inhibitors diluted 100 fold. Protein concentrations in each sample were determined using microBCA technique according to manufacturer's instructions. Western blotting was performed loading 20 μg of proteins in each gel well, and according to the operating procedure. […] After western blotting revelation according to the operating procedure instructions, luminescence was read using FujiFilm (Ray Test) apparatus.
This instrument measures the total signal of luminescence obtained on Fujifilm machine (AU) for each selected band. Then, it subtracts the background value (BG) proportional to the size of the selected band or Area. The background is calculated from a band taken on the specific background of the western blot, to obtain the specific signal or (AU−BG) for each band. The calculation of the fold induction is performed for each treatment with compound or combination of compounds using the following formula:
Fold Induction=((AU−BG)t/(AU−BG)st)*100

[4] = test system: human melanoma cell line A2058; assay: In vitro pro-apoptotic activity (PARP cleavage western blot) in A2058, example 4
Method: as §1, §5, §4

For `CC(=O)O[C@@]12CO[C@@H]1C[C@H](O)[C@@]1(C)C(=O)[C@H](O)C3=C(C)[C@@H](OC(=O)[C@H](O)[C@@H](NC(=O)OC(C)(C)C)c4ccccc4)C[C@@](O)([C@@H](OC(=O)c4ccccc4)[C@H]21)C3(C)C` [Taxotere], which fold induction at 0.1 µM ([1]; Homo sapiens) is on record?
Its fold induction at 0.1 µM is 1.56.

And the “PARP cleavage signal (AU-BG)” value [1]?
Its value is 399272 AU-BG.

And the fold induction at 0.1 µM ([2]; Homo sapiens)?
The fold induction at 0.1 µM was 6.79.

What about the “PARP cleavage signal (AU-BG)” value [2] of the same compound?
Its value is 14448019 AU-BG.

What about the “PARP cleavage signal (AU-BG)” value [3] of the same compound?
Its value is 2054900 AU-BG.

What about the fold induction at 0.1 µM ([3]; Homo sapiens) of the same compound?
Its fold induction at 0.1 µM is 2.88.

And the “PARP cleavage signal (AU-BG)” value ([4]; 100 nM, positive control, A2058, example 4)?
Its value is 3563893 AU-BG.

What about the fold induction at 0.1 µM ([4]; Homo sapiens, A2058, read-out: Fold induction of PARP cleavage) of the same compound?
Its fold induction at 0.1 µM is 1.66.
